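Five concentrations, 48 hours, 96-well plates. TGI: concentration producing complete growth inhibition.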

One assay deals with OVCAR-5 ovarian. The assay is described as follows: growth of human tumour cells (NCI), 48 h.
`O=C(NC1=C(Cl)C(=O)c2ccccc2C1=O)c1ccccc1` registered a TGI greater than 100 µM.

For `C/C(=N\NS(=O)(=O)c1ccc(C)cc1)c1ccccn1`, the TGI is greater than 100 µM.

In turn, `CN(/N=C/c1ccc(C(=O)O)cc1)C1=NCCCCN1` yielded a TGI greater than 100 µM.

`COc1ccc2nc(N/N=C/c3sccc3C)cc(C)c2c1` returned a TGI of 61.3 µM.

With `C=C(C)C1CCC(C(=O)O)CC1` (centres undefined), the TGI was greater than 100 µM.

As for `C=CCCON(C(=O)OC(C)(C)C)c1ccccc1`, the TGI is greater than 100 µM.

`CC[C@@H](C)[C@H](NC(=O)[C@H](Cc1ccccc1)NCC(F)(F)F)C(=O)OC(C)(C)C` displayed a TGI greater than 100 µM.

As to `CSc1c(C(=O)Nc2ccccc2)c(N)n(N)c(=O)c1C#N`, the TGI is greater than 100 µM.

Consider `C=CCn1c(N)c(C#N)c(C#N)c1CCC`, for which the TGI is greater than 100 µM.

As for `CCCCCCCC(CC(=O)NC(CO)C(=O)NC(CO)CC(C)C)OC(=O)CC(CCCCCCC)OC(=O)CC(CCCCCCC)OC1OC(C)C(O)C(OC2OC(C)C(OC(C)=O)C(O)C2O)C1O` (centres undefined), the TGI was 21.7 µM.

`O=C1C2=Cc3ccccc3OC2(O)Oc2cc3ccccc3cc21` (centres undefined): the TGI is greater than 100 µM.

For a further assay, the system named is T-47D breast. The experiment in a line: growth of human tumour cells (NCI), 48 h.
For the compound `Clc1ccc(CCN(CCc2ccc(Cl)c(Cl)c2)CCN2CCCC2)cc1Cl`, the TGI amounted to 12.3 µM.

`O=C(O)CO[C@@]12C#C/C=C\C#C[C@@H]3N(C(=O)Oc4ccccc4)c4ccccc4[C@]14O[C@@]34CCC2` yielded a TGI of 33.1 µM.

On to `CC1C2CC(C(S(=O)(=O)O)C2=O)C1(C)C` (centres undefined), for which the TGI is greater than 100 µM.

In the case of `COc1ccc(/C=C2\N=C(N3CCCCC3)NC2=O)cc1`, the TGI was greater than 100 µM.

Compound `CC(C)NC(=O)OCc1c2c(n(C)c1COC(=O)NC(C)C)-c1cc(Cl)c(Cl)cc1CC2` had a TGI greater than 100 µM.

The compound `Cc1ccc(C2(O)CSC(=NC34CC5CC(CC(C5)C3)C4)N2C(P(=O)(O)O)P(=O)(O)O)cc1` (centres undefined) registered a TGI greater than 100 µM.

For `CNc1ncccc1Nc1cc(=O)n2c3cccnc3n(C)c2c1`, the TGI was greater than 100 µM.

Compound `CC1(C)C2CCC1(C)C(N/C(Sc1ccccc1)=C(/C(Cl)=C(Cl)Cl)[N+](=O)[O-])C2` (centres undefined) gave a TGI of 31.2 µM.

The compound `O=C(NC1=C(Cl)C(=O)c2ccccc2C1=O)c1ccccc1` registered a TGI of 47.4 µM.

Turning to `C/C(=N\NS(=O)(=O)c1ccc(C)cc1)c1ccccn1`, the TGI is greater than 100 µM.

`CN(/N=C/c1ccc(C(=O)O)cc1)C1=NCCCCN1` came in with a TGI greater than 100 µM.

`COc1ccc2nc(N/N=C/c3sccc3C)cc(C)c2c1` had a TGI greater than 100 µM.

For `C=C(C)C1CCC(C(=O)O)CC1` (centres undefined), the TGI was greater than 100 µM.

`C=CCCON(C(=O)OC(C)(C)C)c1ccccc1` came in with a TGI greater than 100 µM.

The compound `Nc1cc([N+](=O)[O-])ccc1C(=O)N1CCC[C@H]1CO` registered a TGI greater than 100 µM.

On to `CC[C@@H](C)[C@H](NC(=O)[C@H](Cc1ccccc1)NCC(F)(F)F)C(=O)OC(C)(C)C`, for which the TGI is greater than 100 µM.

Take `CSc1c(C(=O)Nc2ccccc2)c(N)n(N)c(=O)c1C#N`: the TGI was greater than 100 µM.

For `C=CCn1c(N)c(C#N)c(C#N)c1CCC`, the TGI is greater than 100 µM.

The compound `CCCCCCCC(CC(=O)NC(CO)C(=O)NC(CO)CC(C)C)OC(=O)CC(CCCCCCC)OC(=O)CC(CCCCCCC)OC1OC(C)C(O)C(OC2OC(C)C(OC(C)=O)C(O)C2O)C1O` (centres undefined) yielded a TGI of 23.1 µM.

As for `O=C1C2=Cc3ccccc3OC2(O)Oc2cc3ccccc3cc21` (centres undefined), the TGI was greater than 100 µM.

The subject of a further assay is OVCAR-4 ovarian. The assay is described as follows: growth of human tumour cells (NCI), 48 h.
`Clc1ccc(CCN(CCc2ccc(Cl)c(Cl)c2)CCN2CCCC2)cc1Cl` came in with a TGI of 3.66 µM.

As for `O=C(O)CO[C@@]12C#C/C=C\C#C[C@@H]3N(C(=O)Oc4ccccc4)c4ccccc4[C@]14O[C@@]34CCC2`, the TGI was greater than 100 µM.

`CC1C2CC(C(S(=O)(=O)O)C2=O)C1(C)C` (centres undefined) gave a TGI greater than 100 µM.

As to `COc1ccc(/C=C2\N=C(N3CCCCC3)NC2=O)cc1`, the TGI was greater than 100 µM.

The compound `CC(C)NC(=O)OCc1c2c(n(C)c1COC(=O)NC(C)C)-c1cc(Cl)c(Cl)cc1CC2` gave a TGI greater than 100 µM.

Compound `Cc1ccc(C2(O)CSC(=NC34CC5CC(CC(C5)C3)C4)N2C(P(=O)(O)O)P(=O)(O)O)cc1` (centres undefined) came in with a TGI greater than 100 µM.

Turning to `CNc1ncccc1Nc1cc(=O)n2c3cccnc3n(C)c2c1`, the TGI was greater than 100 µM.

As for `CC1(C)C2CCC1(C)C(N/C(Sc1ccccc1)=C(/C(Cl)=C(Cl)Cl)[N+](=O)[O-])C2` (centres undefined), the TGI stood at 29.8 µM.

Consider `O=C(NC1=C(Cl)C(=O)c2ccccc2C1=O)c1ccccc1`, for which the TGI was greater than 100 µM.

Consider `C/C(=N\NS(=O)(=O)c1ccc(C)cc1)c1ccccn1`, for which the TGI was greater than 100 µM.

`CN(/N=C/c1ccc(C(=O)O)cc1)C1=NCCCCN1`: the TGI is greater than 100 µM.

The compound `COc1ccc2nc(N/N=C/c3sccc3C)cc(C)c2c1` displayed a TGI of 99.5 µM.

As to `Nc1cc([N+](=O)[O-])ccc1C(=O)N1CCC[C@H]1CO`, the TGI was greater than 100 µM.

`CC[C@@H](C)[C@H](NC(=O)[C@H](Cc1ccccc1)NCC(F)(F)F)C(=O)OC(C)(C)C` gave a TGI greater than 100 µM.

In turn, `CSc1c(C(=O)Nc2ccccc2)c(N)n(N)c(=O)c1C#N` came in with a TGI greater than 100 µM.

In the case of `C=CCn1c(N)c(C#N)c(C#N)c1CCC`, the TGI was greater than 100 µM.

`CCCCCCCC(CC(=O)NC(CO)C(=O)NC(CO)CC(C)C)OC(=O)CC(CCCCCCC)OC(=O)CC(CCCCCCC)OC1OC(C)C(O)C(OC2OC(C)C(OC(C)=O)C(O)C2O)C1O` (centres undefined) came in with a TGI of 19.4 µM.

`O=C1C2=Cc3ccccc3OC2(O)Oc2cc3ccccc3cc21` (centres undefined) registered a TGI greater than 100 µM.

The subject of the next assay is HT29 colon. The experiment in a line: growth of human tumour cells (NCI), 48 h.
`Clc1ccc(CCN(CCc2ccc(Cl)c(Cl)c2)CCN2CCCC2)cc1Cl` yielded a TGI of 3.41 µM.

The compound `O=C(O)CO[C@@]12C#C/C=C\C#C[C@@H]3N(C(=O)Oc4ccccc4)c4ccccc4[C@]14O[C@@]34CCC2` yielded a TGI greater than 100 µM.

Consider `CC1C2CC(C(S(=O)(=O)O)C2=O)C1(C)C` (centres undefined), for which the TGI is greater than 100 µM.

`COc1ccc(/C=C2\N=C(N3CCCCC3)NC2=O)cc1` returned a TGI greater than 100 µM.

`CC(C)NC(=O)OCc1c2c(n(C)c1COC(=O)NC(C)C)-c1cc(Cl)c(Cl)cc1CC2`: the TGI was greater than 100 µM.

In turn, `Cc1ccc(C2(O)CSC(=NC34CC5CC(CC(C5)C3)C4)N2C(P(=O)(O)O)P(=O)(O)O)cc1` (centres undefined) came in with a TGI greater than 100 µM.

With `CNc1ncccc1Nc1cc(=O)n2c3cccnc3n(C)c2c1`, the TGI was greater than 100 µM.

Compound `CC1(C)C2CCC1(C)C(N/C(Sc1ccccc1)=C(/C(Cl)=C(Cl)Cl)[N+](=O)[O-])C2` (centres undefined) displayed a TGI of 30.7 µM.

`O=C(NC1=C(Cl)C(=O)c2ccccc2C1=O)c1ccccc1` gave a TGI of 66.1 µM.

The compound `C/C(=N\NS(=O)(=O)c1ccc(C)cc1)c1ccccn1` gave a TGI greater than 100 µM.

For the compound `CN(/N=C/c1ccc(C(=O)O)cc1)C1=NCCCCN1`, the TGI was greater than 100 µM.

For `COc1ccc2nc(N/N=C/c3sccc3C)cc(C)c2c1`, the TGI is 24 µM.

In turn, `C=C(C)C1CCC(C(=O)O)CC1` (centres undefined) gave a TGI greater than 100 µM.

For `C=CCCON(C(=O)OC(C)(C)C)c1ccccc1`, the TGI is greater than 100 µM.

Turning to `Nc1cc([N+](=O)[O-])ccc1C(=O)N1CCC[C@H]1CO`, the TGI is greater than 100 µM.

As to `CC[C@@H](C)[C@H](NC(=O)[C@H](Cc1ccccc1)NCC(F)(F)F)C(=O)OC(C)(C)C`, the TGI was greater than 100 µM.

In turn, `CSc1c(C(=O)Nc2ccccc2)c(N)n(N)c(=O)c1C#N` gave a TGI greater than 100 µM.

With `C=CCn1c(N)c(C#N)c(C#N)c1CCC`, the TGI was greater than 100 µM.

As for `CCCCCCCC(CC(=O)NC(CO)C(=O)NC(CO)CC(C)C)OC(=O)CC(CCCCCCC)OC(=O)CC(CCCCCCC)OC1OC(C)C(O)C(OC2OC(C)C(OC(C)=O)C(O)C2O)C1O` (centres undefined), the TGI was found to be 13 µM.

`O=C1C2=Cc3ccccc3OC2(O)Oc2cc3ccccc3cc21` (centres undefined) displayed a TGI greater than 100 µM.
